Data reported in patent publication US6413517B1, “Identification of broadly reactive DR restricted epitopes” (Epimmune, Inc., priority 1997, dated 2002).
Like-named read-outs stand apart in the source and are kept apart here. No end group written: not given here.

Columns and labels:
[1] = biological target: T1, DRB1*0101 (DR1) (Homo sapiens, UniProt P01903+P01911, A100R/D57E/F55L/F60I/F76Y/I96L/L162R/M171V/P40L/Q125E/R42F/V115G/Y59C); assay: biochemical; type: binding
T1 construct: Epstein-Barr virus (EBV) transformed homozygous cell lines were used as sources; endogenous in cells; host or cells: LG2 (EBV-transformed homozygous B cell line)

[2] = biological target: T2, DRB1*0401 (DR4w4) (Homo sapiens, UniProt P01903+P01911, A100K/A169T/F76Y/I96L/K127E/L162R/M171V/N62H/P40V/Q125Y/R42H/S133A/S149N/S66Y/V115G/V209L/W38E); assay: biochemical; type: binding
T2 construct: Epstein-Barr virus (EBV) transformed homozygous cell lines were used as sources; endogenous in cells; host or cells: PREISS (EBV-transformed homozygous B cell line)

[3] = biological target: T3, DRB1*0701 (DR7) (Homo sapiens, UniProt P01903+P01911, A100R/A102G/A103Q/D57E/D86V/E43K/F76Y/K127E/L162R/M171V/P40G/Q125H/Q99D/R33Q/R42Y/R54Q/S133A/S66F/T210M/V115G/Y107V/Y59L/Y89S); assay: biochemical; type: binding
T3 construct: Epstein-Barr virus (EBV) transformed homozygous cell lines were used as sources; endogenous in cells; host or cells: PITOUT (EBV-transformed homozygous B cell line)

[4] = biological target: T4, DRB1*1501 (DR2w2b) (Homo sapiens, UniProt P01903+P01911); assay: biochemical; type: binding
T4 construct: expressed in transfected cells; host or cells: transfected fibroblasts L466.1

[5] = biological target: T5, DRB5*0101 (DR2w2a) (Homo sapiens, UniProt P01903+Q30154); assay: biochemical; type: binding
T5 construct: Epstein-Barr virus (EBV) transformed homozygous cell lines were used as sources; endogenous in cells; host or cells: GM3107 (EBV-transformed homozygous B cell line)

[6] = biological target: T6, DRB1*0405 (DR4w15) (Homo sapiens, UniProt P01903+P01911, A100R/A169T/D86S/F76Y/I96L/K127E/L162R/M171V/N62H/P40V/Q125Y/R42H/S133A/S149N/S66Y/V115G/V209L/W38E); assay: biochemical; type: binding
T6 construct: Epstein-Barr virus (EBV) transformed homozygous cell lines were used as sources; endogenous in cells; host or cells: KT3 (EBV-transformed homozygous B cell line)

[7] = biological target: T7, DRB1*1101 (DR5w11) (Homo sapiens, UniProt P01903+P01911, A100R/A169T/A87E/I96F/K41T/L162R/M171V/P40S/Q125H/Q178H/Q39Y/Q99D/R42S/S66Y/T262R/V115G/W38E); assay: biochemical; type: binding
T7 construct: Epstein-Barr virus (EBV) transformed homozygous cell lines were used as sources; endogenous in cells; host or cells: SWEIG (EBV-transformed homozygous B cell line)
T7 sequence (P01903 26-254, other chains not shown): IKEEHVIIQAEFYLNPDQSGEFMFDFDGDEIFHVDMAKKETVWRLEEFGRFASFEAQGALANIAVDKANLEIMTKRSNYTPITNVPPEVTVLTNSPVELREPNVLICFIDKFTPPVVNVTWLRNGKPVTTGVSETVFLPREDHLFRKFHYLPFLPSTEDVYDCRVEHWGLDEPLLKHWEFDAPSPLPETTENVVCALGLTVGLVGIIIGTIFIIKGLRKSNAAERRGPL

[8] = biological target: T8, DRB1*1302 (DR6w19) (Homo sapiens, UniProt P01903+P01911, A100E/A169T/K41T/L162R/M171V/P40S/Q125H/Q178H/Q39Y/Q99D/R42S/S66N/T262R/V115G/W38E/Y61H); assay: biochemical; type: binding
T8 construct: Epstein-Barr virus (EBV) transformed homozygous cell lines were used as sources; the source of Class II molecules the EBV transformed homozygous cell line H0301; endogenous in cells; host or cells: H0301 (EBV-transformed homozygous B cell line)

[9] = biological target: T9, DRB1*0802 (DR8w2) (Homo sapiens, UniProt P01903+P01911, A100R/A103L/A169T/F76Y/H45Y/I96F/K41T/L162R/M171V/P40S/Q125H/Q178H/Q39Y/Q99D/R218S/R42G/S66Y/V115G/W38E); assay: biochemical; type: binding
T9 construct: Epstein-Barr virus (EBV) transformed homozygous cell lines were used as sources; endogenous in cells; host or cells: OLL (EBV-transformed homozygous B cell line)

[10] = biological target: T10, DRB1*0901 (DR9) (Homo sapiens, UniProt P01903+P01911, A100R/A103E/D57H/D86V/F55Y/F60I/F76Y/I96F/K127E/L162R/M171V/P40D/Q125H/Q99R/R33Q/R42F/S133A/S66N/T210M/V115G/W38K/Y107V/Y59G/Y89S); assay: biochemical; type: binding
T10 construct: Epstein-Barr virus (EBV) transformed homozygous cell lines were used as sources; endogenous in cells

[11] = biological target: T11, DRB1*1201 (DR5w12) (Homo sapiens, UniProt P01903+P01911, A100R/A169T/D57E/D86V/F55L/H45Y/K41T/L162R/M171V/P40S/Q125H/Q178H/Q39Y/Q99D/R42G/S66L/T262R/V114A/V67L/W38E/Y59H/Y61H/Y89S); assay: biochemical; type: binding
T11 construct: Epstein-Barr virus (EBV) transformed homozygous cell lines were used as sources; endogenous in cells; host or cells: Herluf (EBV-transformed homozygous B cell line)

[12] = biological target: T12, DRB1*0301 (DR3w17) (Homo sapiens, UniProt P01903+P01911, A100K/A102G/A103R/A169T/F55Y/I96L/K41T/L162R/M171V/P40S/Q125H/Q178H/Q39Y/R42S/S66N/T106N/T262R/W38E/Y61H); details: read-out: Binding Capacity (IC 50% nM) Other Alleles DR3
[13] = biological target: T12, DRB1*0301 (DR3w17); assay: biochemical; details: Binding Capacity (IC50% nM) DR3
[14] = Binding Capacity (IC 50% nM) DR1,4,7 DRB1
[15] = read-out: Binding Capacity (IC 50% nM) DR1,4,7 DR4w4
[16] = Binding Capacity (IC 50% nM) DR1,4,7 DR7
[17] = Binding Capacity (IC50% nM) DR2w2a
[18] = read-out: Binding Capacity (IC 50% nM) Other Alleles DR2w2a
[19] = read-out: Binding Capacity (IC 50% nM) Other Alleles DR4w15
[20] = Binding Capacity (IC50% nM) DR5w11
[21] = read-out: Binding Capacity (IC 50% nM) Other Alleles DR5w11
[22] = Binding Capacity (IC50% nM) DR8w2
[23] = read-out: Binding Capacity (IC 50% nM) Other Alleles DR8w2
[24] = Binding Capacity (IC 50% nM) Other Alleles DR9
[25] = Binding Capacity (IC50% nM) DR5w12
[26] = read-out: Binding Capacity (IC 50% nM) Other Alleles DR5w12
[27] = Binding Capacity (IC50% nM) DR1
[28] = Binding Capacity (IC50% nM) DR4w4
[29] = Binding Capacity (IC 50% nM) Other Alleles DR2w2b
[30] = Binding Capacity (IC50% nM) DR4w15
[31] = Binding Capacity (IC50% nM) DR6w19
[32] = read-out: Binding Capacity (IC 50% nM) Other Alleles DR6w19
[33] = Binding Capacity (IC50% nM) DR9

| Compound | IC50 [1, 14] | IC50 [2, 15] | IC50 [3, 16] | IC50 [5, 17] | IC50 [5, 18] | IC50 [6, 19] | IC50 [7, 20] | IC50 [7, 21] | IC50 [9, 22] | IC50 [9, 23] | IC50 [10, 24] | IC50 [11, 25] | IC50 [11, 26] | IC50 [12] | IC50 [13] | IC50 [1, 27] | IC50 [2, 28] | IC50 [4, 29] | IC50 [6, 30] | IC50 [8, 31] | other results |
| --- | --- | --- | --- | --- | --- | --- | --- | --- | --- | --- | --- | --- | --- | --- | --- | --- | --- | --- | --- | --- | --- |
| CC[C@H](C)[C@H](NC(=O)[C@H](CO)NC(=O)[C@H](CO)NC(=O)[C@H](CC(N)=O)NC(=O)[C@@H](NC(=O)[C@@H](NC(=O)[C@H](CC(N)=O)NC(=O)[C@H](Cc1ccccc1)NC(=O)[C@@H](N)C(C)C)C(C)C)C(C)C)C(=O)NCC(=O)N[C@@H](CC(C)C)C(=O)N[C@H](C(=O)N[C@@H](CCSC)C(=O)N[C@H](C(=O)N[C@@H](CC(C)C)C(=O)O)C(C)C)[C@@H](C)CC [Peptide F107.23] | < 1000 nM | > 1000 nM | < 1000 nM | > 10000 nM | > 1000 nM | > 1000 nM | > 10000 nM | > 1000 nM | > 10000 nM | > 1000 nM | < 1000 nM | > 10000 nM | > 1000 nM | > 1000 nM | > 10000 nM |  |  |  |  |  | IC50 ([4]; read-out: Binding Capacity (IC 50% nM) Other Alleles DR2w2b): > 1000 nM; IC50 ([8]; Binding Capacity (IC 50% nM) Other Alleles DR6w19): < 1000 nM |
| GPPTALRSFGFAFGYM [Peptide 1136.29] | < 1000 nM | > 1000 nM | < 1000 nM | 468 nM |  |  | 6250 nM | > 1000 nM | 2970 nM | > 1000 nM | < 1000 nM | 1000 nM |  | > 1000 nM | > 10000 nM | 32 nM | 4330 nM | < 1000 nM | 745 nM | > 10000 nM | IC50 ([4]; Binding Capacity (IC50% nM) DR2w2b): 1.1 nM; IC50 ([5]; Binding Capacity (IC 50% nM) Other Alleles DR2w2a): < 1000 nM; IC50 ([6]; Binding Capacity (IC 50% nM) Other Alleles DR4w15): < 1000 nM; IC50 [8, 32]: > 1000 nM; IC50 [10, 33]: 183 nM; IC50 ([11]; Binding Capacity (IC 50% nM) Other Alleles DR5w12): < 1000 nM |
| LAAIIFLFGPPTALRS [Peptide 1136.28] | < 1000 nM |  |  | 1480 nM | > 1000 nM | > 1000 nM |  | > 1000 nM | 7540 nM | > 1000 nM |  | 4480 nM | > 1000 nM | > 1000 nM | > 10000 nM | 0.23 nM | 849 nM | < 1000 nM | 6670 nM | 3180 nM | IC50 ([2]; Binding Capacity (IC 50% nM) DR1,4,7 DR4w4): < 1000 nM; IC50 ([3]; Binding Capacity (IC50% nM) DR7): 3620 nM; IC50 ([3]; read-out: Binding Capacity (IC 50% nM) DR1,4,7 DR7): > 1000 nM; IC50 [8, 32]: > 1000 nM; IC50 [10, 33]: > 10000 nM; IC50 ([10]; read-out: Binding Capacity (IC 50% nM) Other Alleles DR9): > 1000 nM |
